Laboratory results as given in patent publication US10202360B2 (CELGENE QUANTICEL RESEARCH, INC., priority 2016, dated 2019).
Each block holds one compound with its values, some of them ahead of it.

Molecular target: CREBBP (Homo sapiens (Human), UniProt Q92793)
Assay: In vitro enzyme inhibition assay - CREBBP inhibition (AlphaScreen, biotinylated H4-tetraacetyl peptide)
Type: binding
Details: Table 28; AlphaScreen, H4-tetraacetyl peptide
Outline: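 Displacement of 20 nM biotinylated tetraacetyl-H4 peptide from 50 nM E. coli-expressed His-CREBBP, measured by AlphaScreen after bead equilibration for 2 h.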

Chain of CREBBP (Q92793 1081-1197): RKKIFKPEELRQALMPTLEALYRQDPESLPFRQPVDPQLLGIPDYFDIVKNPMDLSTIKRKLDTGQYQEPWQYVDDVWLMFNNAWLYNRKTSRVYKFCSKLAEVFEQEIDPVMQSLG

Structure (SMILES): CC(C)CCS(=O)(=O)Nc1cc(-c2ccc(=O)n(C)c2)nc(Oc2c(F)cccc2Cl)n1 [Example 251, 3-Mehtyl-butane-1-sulfonic acid [2-(2-chloro-6-fluoro-phenoxy)-6-(1-methyl-6-oxo-1,6-dihydro-pyridin-3-yl)-pyrimidin-4-yl]-amide]
IC50: < 500 nM

Structure (SMILES): CCCCS(=O)(=O)Nc1nc(Oc2c(C)cccc2F)nc(-c2ccc(=O)n(C)c2)c1F [Example 352, N-(5-fluoro-2-(2-fluoro-6-methylphenoxy)-6-(1-methyl-6-oxo-1,6-dihydropyridin-3-yl)pyrimidin-4-yl)butane-1-sulfonamide]
IC50: < 500 nM

Structure (SMILES): Cc1cccc(C#N)c1Oc1nc(N[C@H](C)c2ccccc2)cc(-c2ccc(=O)n(C)c2)n1 [Example 318, (R)-3-Methyl-2-[4-(1-methyl-6-oxo-1,6-dihydro-pyridin-3-yl)-6-(1-phenyl-ethylamino)-pyrimidin-2-yloxy]-benzonitrile]
IC50: < 500 nM

Structure (SMILES): Cc1cccc(C)c1CNc1cc(-c2ccc(=O)n(C)c2)nc(Oc2c(C)cccc2F)n1 [Example 300, 5-[6-(2,6-Dimethyl-benzylamino)-2-(2-fluoro-6-methyl-phenoxy)-pyrimidin-4-yl]-1-methyl-1H-pyridin-2-one]
IC50: < 500 nM

Structure (SMILES): CCCCS(=O)(=O)Nc1cc(-c2ccc(=O)n(C)c2)nc(Oc2c(F)cccc2CC)n1 [Example 337, N-(2-(2-ethyl-6-fluorophenoxy)-6-(1-methyl-6-oxo-1,6-dihydropyridin-3-yl)pyrimidin-4-yl)butane-1-sulfonamide]
IC50: < 500 nM

Structure (SMILES): CC[C@H](C)S(=O)(=O)Nc1cc(-c2ccc(=O)n(C)c2)nc(Oc2c(C)cccc2F)n1 [Example 202, (S)-N-(2-(2-fluoro-6-methylphenoxy)-6-(1-methyl-6-oxo-1,6-dihydropyridin-3-yl)pyrimidin-4-yl)butane-2-sulfonamide]
IC50: < 500 nM

Structure (SMILES): CCc1cccc(F)c1Oc1nc(NS(=O)(=O)[C@@H](C)CC)cc(-c2ccc(=O)n(C)c2)n1 [Example 215, (2S)-Butane-2-sulfonic acid [2-(2-ethyl-6-fluoro-phenoxy)-6-(1-methyl-6-oxo-1,6-dihydro-pyridin-3-yl)-pyrimidin-4-yl]-amide]
IC50: < 500 nM

Structure (SMILES): Cc1cc(-c2cc(NS(=O)(=O)C(C)C)nc(Nc3ccc(F)cc3F)n2)cn(C)c1=O [Example 91, N-(2-((2,4-difluorophenyl)amino)-6-(1,5-dimethyl-6-oxo-1,6-dihydropyridin-3-yl)pyrimidin-4-yl)propane-2-sulfonamide]
IC50: < 500 nM

Structure (SMILES): CCS(=O)(=O)Nc1cc(-c2ccc(=O)n(C)c2)nc(-c2ccccc2C#N)n1 [Example 198, Ethanesulfonic acid [2-(2-cyano-phenyl)-6-(1-methyl-6-oxo-1,6-dihydro-pyridin-3-yl)-pyrimidin-4-yl]-amide]
IC50: < 500 nM

Structure (SMILES): CCCCS(=O)(=O)Nc1cc(-c2ccc(=O)n(C)c2)nc(-c2ccccc2OC)n1 [Example 197, Butane-1-sulfonic acid [2-(2-methoxy-phenyl)-6-(1-methyl-6-oxo-1,6-dihydro-pyridin-3-yl)-pyrimidin-4-yl]-amide]
IC50: < 500 nM

Structure (SMILES): COc1nc(NCc2cccnc2)cc(-c2ccc(=O)n(C)c2)n1 [Example 330, 5-{2-Methoxy-6-[(pyridin-3-ylmethyl)-amino]-pyrimidin-4-yl}-1-methyl-1H-pyridin-2-one]
IC50: < 500 nM

Structure (SMILES): CC(C)Oc1nc(NS(=O)(=O)c2ccccc2)cc(-c2ccc(=O)n(C)c2)n1 [Example 355, N-(2-isopropoxy-6-(1-methyl-6-oxo-1,6-dihydropyridin-3-yl)pyrimidin-4-yl)benzenesulfonamide]
IC50: < 500 nM

Structure (SMILES): Cc1cccc(CNc2cc(-c3ccc(=O)n(C)c3)nc(Oc3c(C)cccc3F)n2)n1 [Example 289, 5-(2-(2-fluoro-6-methylphenoxy)-6-(((6-methylpyridin-2-yl)methyl)amino)pyrimidin-4-yl)-1-methylpyridin-2(1H)-one]
IC50: < 500 nM

Structure (SMILES): Cc1cc(-c2cc(N)nc(Oc3ccc(F)cc3F)n2)cn(C)c1=O [Example 270, 5-(6-amino-2-(2,4-difluorophenoxy)pyrimidin-4-yl)-1,3-dimethy-lpyridin-2(1H)-one]
IC50: < 500 nM

Structure (SMILES): CCC(C)S(=O)(=O)Nc1cc(-c2ccc(=O)n(C)c2)nc(Oc2c(C)ccc(F)c2F)n1 (centres unmarked) [Example 349, N-(2-(2,3-difluoro-6-methylphenoxy)-6-(1-methyl-6-oxo-1,6-dihydropyridin-3-yl)pyrimidin-4-yl)butane-2-sulfonamide]
IC50: < 500 nM

Structure (SMILES): Cc1cccc(F)c1Oc1nc(N[C@H]2CCc3ccccc32)cc(-c2ccc(=O)n(C)c2)n1 [Example 287, (S)-5-(6-((2,3-dihydro-1H-inden-1-yl)amino)-2-(2-fluoro-6-methylphenoxy)pyrimidin-4-yl)-1-methylpyridin-2(1H)-one]
IC50: < 500 nM

Structure (SMILES): CC[C@H](C)S(=O)(=O)Nc1cc(-c2ccc(=O)n(C)c2)nc(Oc2c(F)ccc(C)c2Cl)n1 [Example 224, (2S)-Butane-2-sulfonic acid [2-(2-chloro-6-fluoro-3-methyl-phenoxy)-6-(1-methyl-6-oxo-1,6-dihydro-pyridin-3-yl)-pyrimidin-4 yl]-amide]
IC50: < 500 nM

Structure (SMILES): Cc1cc(-c2cc(NS(=O)(=O)C(C)C)nc(Cc3ccc(F)cc3F)n2)cn(C)c1=O [Example 93, Propane-2-sulfonic acid [2-(2,4-difluoro-benzyl)-6-(1,5-dimethyl-6-oxo-1,6-dihydro-pyridin-3-yl)-pyrimidin-4-yl]-amide]
IC50: 500 to 5000 nM

Structure (SMILES): CC[C@H](C)S(=O)(=O)Nc1cc(-c2ccc(=O)n(C)c2)nc(Oc2c(F)cccc2Cl)n1 [Example 206, Butane-(2S)-sulfonic acid [2-(2-chloro-6-fluoro-phenoxy)-6-(1-methyl-6-oxo-1,6-dihydro-pyridin-3-yl)-pyrimidin-4-yl]-amide]
IC50: < 500 nM

Structure (SMILES): CC(C)S(=O)(=O)Nc1cc(-c2ccc(=O)n(C)c2)nc(Oc2c(F)cccc2F)n1 [Example 340, N-(2-(2,6-difluorophenoxy)-6-(1-methyl-6-oxo-1,6-dihydropyridin-3-yl)pyrimidin-4-yl)propane-2-sulfonamide]
IC50: < 500 nM

Structure (SMILES): Cc1c(NS(=O)(=O)C(C)C)nc(Oc2ccc(F)cc2F)nc1-c1cc(C)c(=O)n(C)c1 [Example 165, Propane-2-sulfonic acid [2-(2,4-difluoro-phenoxy)-6-(1,5-dimethyl-6-oxo-1,6-dihydro-pyridin-3-yl)-5-methyl-pyrimidin-4-yl]-amide]
IC50: < 500 nM

Continued, values first:

IC50: < 500 nM
Structure (SMILES): Cc1cccc(F)c1Oc1nc(NS(=O)(=O)C(C)C)cc(-c2cc(Cl)c(=O)n(C)c2)n1 [Example 117, Propane-2-sulfonic acid [6-(5-chloro-1-methyl-6-oxo-1,6-dihydro-pyridin-3-yl)-2-(2-fluoro-6-methyl-phenoxy)-pyrimidin-4-yl]-amide]

IC50: < 500 nM
Structure (SMILES): CCCS(=O)(=O)Nc1cc(-c2cc(C)c(=O)n(C)c2)nc(Oc2c(C)cc(F)cc2Cl)n1 [Example 99, Propane-1-sulfonic acid [2-(2-chloro-4-fluoro-6-methyl-phenoxy)-6-(1,5-dimethyl-6-oxo-1,6-dihydro-pyridin-3-yl)-pyrimidin-4-yl]-amide]

IC50: < 500 nM
Structure (SMILES): CCCCS(=O)(=O)Nc1cc(-c2cc(C)c(=O)n(C)c2)nc(Oc2cc(OC)ccc2C#N)n1 [Example 35, Butane-1-sulfonic acid [2-(2-cyano-5-methoxy-phenoxy)-6-(1,5-dimethyl-6-oxo-1,6-dihydro-pyridin-3-yl)-pyrimidin-4-yl]-amide]

IC50: < 500 nM
Structure (SMILES): CCC[C@H](C)S(=O)(=O)Nc1cc(-c2ccc(=O)n(C)c2)nc(Oc2c(C)cccc2Cl)n1 [Example 217, (2S)-Pentane-2-sulfonic acid [2-(2-chloro-6-methyl-phenoxy)-6-(1-methyl-6-oxo-1,6-dihydro-pyridin-3-yl)-pyrimidin-4-yl]-amide]

IC50: < 500 nM
Structure (SMILES): CCCS(=O)(=O)Nc1cc(Oc2c(C)cccc2Cl)nc(-c2cc(C)c(=O)n(C)c2)n1 [Example 107, Propane-1-sulfonic acid [6-(2-chloro-6-methyl-phenoxy)-2-(1,5-dimethyl-6-oxo-1,6-dihydro-pyridin-3-yl)-pyrimidin-4-yl]-amide]

IC50: < 500 nM
Structure (SMILES): Cc1cccc(F)c1Oc1nc(NS(=O)(=O)CCC(C)C)nc(-c2cc(C)c(=O)n(C)c2)n1 [Example 186, 3-Methyl-butane-1-sulfonic acid [4-(1,5-dimethyl-6-oxo-1,6-dihydro-pyridin-3-yl)-6-(2-fluoro-6-methyl-phenoxy)-[1,3,5]triazin-2-yl]-amide]

IC50: < 500 nM
Structure (SMILES): CCCS(=O)(=O)Nc1cc(-c2cc(C)c(=O)n(C)c2)nc(Oc2c(C)cccc2C#N)n1 [Example 23, Propane-1-sulfonic acid [2-(2-cyano-6-methyl-phenoxy)-6-(1,5-dimethyl-6-oxo-1,6-dihydro-pyridin-3-yl)-pyrimidin-4-yl]-amide]

IC50: < 500 nM
Structure (SMILES): CCCS(=O)(=O)Nc1cc(-c2ccc(=O)n(C)c2)nc(Oc2c(C)cc(F)cc2F)n1 [Example 344, N-(2-(2,4-difluoro-6-methylphenoxy)-6-(1-methyl-6-oxo-1,6-dihydropyridin-3-yl)pyrimidin-4-yl)propane-1-sulfonamide]

IC50: < 500 nM
Structure (SMILES): CCS(=O)(=O)Nc1nc(Oc2c(C)cccc2F)nc(-c2cc(C)c(=O)n(C)c2)n1 [Example 171, Ethanesulfonic acid [4-(1,5-dimethyl-6-oxo-1,6-dihydro-pyridin-3-yl)-6-(2-fluoro-6-methyl-phenoxy)-[1,3,5]triazin-2-yl]-amide]

IC50: < 500 nM
Structure (SMILES): CCCCS(=O)(=O)Nc1cc(-c2cc(Cl)c(=O)n(C)c2)nc(Oc2c(C)cccc2F)n1 [Example 122, Butane-1-sulfonic acid [6-(5-chloro-1-methyl-6-oxo-1,6-dihydro-pyridin-3-yl)-2-(2-fluoro-6-methyl-phenoxy)-pyrimidin-4-yl]-amide]

IC50: < 500 nM
Structure (SMILES): CCCCS(=O)(=O)Nc1cc(-c2cc(C)c(=O)n(C)c2)nc(Oc2c(C)nn(C)c2C)n1 [Example 88, N-(6-(1,5-dimethyl-6-oxo-1,6-dihydropyridin-3-yl)-2-((1,3,5-trimethyl-1H-pyrazol-4-yl)oxy)pyrimidin-4-yl)butane-1-sulfonamide]
